According to patent US20140364438A1, “TRIAZOLOPYRIDINE DERIVATIVES AS A TYROSINE KINASE INHIBITOR” (HANMI PHARM. CO., LTD., priority 2012, published 2014):

Legend:
JAK3 = biological target: T1, JAK3 (Homo sapiens, UniProt P52333); assay: JAK3 kinase inhibitory activity, Z-Lyte Kinase Assay Kit; type: biochemical; settings: 60 minutes at room temperature
T1 construct: purchased Invitrogen PV3855
Method: (§1) The compounds prepared in Examples 1 to 5 were tested for JAK3 and BTK kinase inhibitory activity. Kinase inhibitory activity was measured by using Z-Lyte Kinase Assay Kit (Invitrogen), and JAK3 and BTK enzymes were purchased from Invitrogen (PV3855, PV3190).
(§2) Specifically, the compounds of Examples 1 to 5 were diluted with an aqueous solution of 4% DMSO to obtain solutions with concentrations in the range of 1 to 0.0001 μM. Each kinase was diluted to 1 to 10 ng/assay, and ATP was diluted to form a kinase buffer (50 mM HEPES, pH 7.4; 10 mM MgCl2; 1 mM EGTA; and 0.01% BRIJ-35) by calculating an approximate Kd value. The assays were performed in 384-well polystyrene flat-bottomed plates. Peptide substrate having a suitable concentration, 10 μL of mixed kinase solution and 5 μL of ATP solution having a concentration of 5 to 300 μM were added to 5 μL of the diluted solution of the compound, and allowed to react in a mixer for 60 minutes at room temperature. After 60 minutes, 10 μL of fluorescent labeling reagents was added to each mixture so as to allow fluorescent labeling of peptide substrates, followed by adding a finishing solution to complete the reaction. The fluorescence level was determined with a Molecular Device at 400 nm (excitation filter) and 520 nm (emission filter). The kinase inhibitory activities of the compounds were calculated in phosphorylation rates between 0˜400% against the control group (staurosporine or each of kinase inhibitor) according to the reference protocol of the kit, and percentage inhibition was determine and plotted against concentration (x-axis) to calculate 50% inhibitory concentration (IC50). The calculation and analysis of IC50 were carried out by using Microsoft Excel.

BTK = biological target: T2, BTK (Homo sapiens, UniProt Q06187); assay: BTK kinase inhibitory activity, Z-Lyte Kinase Assay Kit; type: biochemical; settings: 60 minutes at room temperature
T2 construct: purchased Invitrogen PV3190
Method: as §1, §2

T1 sequence (P52333 781-1124 limits assumed): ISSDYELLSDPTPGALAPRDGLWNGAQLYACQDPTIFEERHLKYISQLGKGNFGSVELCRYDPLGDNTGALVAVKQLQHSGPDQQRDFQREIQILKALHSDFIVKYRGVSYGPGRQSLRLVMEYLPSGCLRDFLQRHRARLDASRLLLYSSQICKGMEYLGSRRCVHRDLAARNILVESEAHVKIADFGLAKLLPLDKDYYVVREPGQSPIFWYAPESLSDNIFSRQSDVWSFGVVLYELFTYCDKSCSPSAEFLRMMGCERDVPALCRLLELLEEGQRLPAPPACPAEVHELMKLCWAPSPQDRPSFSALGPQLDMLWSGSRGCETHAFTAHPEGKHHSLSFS
T2 sequence (Q06187 whole entry): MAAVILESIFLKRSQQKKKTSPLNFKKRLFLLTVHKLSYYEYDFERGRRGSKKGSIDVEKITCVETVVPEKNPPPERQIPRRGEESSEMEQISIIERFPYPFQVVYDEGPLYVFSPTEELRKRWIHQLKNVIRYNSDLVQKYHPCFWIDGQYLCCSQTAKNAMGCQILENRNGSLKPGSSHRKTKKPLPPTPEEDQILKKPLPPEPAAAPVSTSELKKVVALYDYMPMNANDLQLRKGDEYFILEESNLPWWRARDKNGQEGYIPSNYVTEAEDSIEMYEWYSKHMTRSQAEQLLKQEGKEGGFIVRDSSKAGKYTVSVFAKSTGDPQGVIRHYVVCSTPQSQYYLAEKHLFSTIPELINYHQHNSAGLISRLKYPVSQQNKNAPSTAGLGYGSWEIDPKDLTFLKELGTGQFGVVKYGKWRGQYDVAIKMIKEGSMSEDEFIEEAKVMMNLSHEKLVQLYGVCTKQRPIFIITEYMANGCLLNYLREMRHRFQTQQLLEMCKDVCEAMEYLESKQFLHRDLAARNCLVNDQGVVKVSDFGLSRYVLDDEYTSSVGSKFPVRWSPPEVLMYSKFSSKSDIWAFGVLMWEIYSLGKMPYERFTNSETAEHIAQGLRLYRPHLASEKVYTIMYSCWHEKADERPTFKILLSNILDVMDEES

SMILES	IC50 (JAK3; class symbol) [nM]	IC50 (BTK; class symbol) [nM]	IC50 (JAK3; numeric value in parentheses) [nM]	IC50 (BTK; numeric value in parentheses) [nM]
C=CC(=O)Nc1cccc(Oc2cccn3nc(Nc4ccc(CN(C)C)cc4)nc23)c1 [Example 3, N-(3-(2-(4-((dimethylamino)methyl)phenylamino)-[1,2,4]triazolo[1,5-a]pyridin-8-yloxy)phenyl)acrylamide]	≤ 100	100 to 500		
C=CC(=O)Nc1cccc(Oc2cccn3nc(Nc4ccc(N5CCN(C(C)C)CC5)cc4)nc23)c1 [Example 5, N-(3-(2-(4-(4-isopropylpiperazin-1-yl)phenylamino)-[1,2,4]triazolo[1,5-a]pyridin-8-yloxy)phenyl)acrylamide]	≤ 100	500 to 1000		
C=CC(=O)Nc1cccc(Oc2cccn3nc(Nc4ccc(NC5CCN(C)CC5)c(F)c4)nc23)c1 [Example 2, N-(3-(2-(3-fluoro-4-(1-methylpiperidin-4-ylamino)phenylamino)-[1,2,4]triazolo[1,5-a]pyridin-8-yloxy)phenyl)acrylamide]	≤ 100	100 to 500		

Now from value to molecule:

IC50 (JAK3; class symbol) [nM]	IC50 (BTK; class symbol) [nM]	IC50 (JAK3; numeric value in parentheses) [nM]	IC50 (BTK; numeric value in parentheses) [nM]	SMILES
≤ 100	≤ 100	9	73	C=CC(=O)Nc1cccc(Oc2cccn3nc(Nc4ccc(N5CCN(C)CC5)cc4)nc23)c1 [Example 1, N-(3-(2-(4-(4-methylpiperazin-1-yl)phenylamino)-[1,2,4]triazolo[1,5-a]pyridin-8-yloxy)phenyl)acrylamide]
≤ 100	100 to 500			C=CC(=O)Nc1cccc(Oc2cccn3nc(Nc4ccc(C(=O)N5CCN(C)CC5)cc4)nc23)c1 [Example 4, N-(3-(2-(4-(4-methylpiperazin-1-carbonyl)phenylamino)-[1,2,4]triazolo[1,5-a]pyridin-8-yloxy)phenyl)acrylamide]
